Test results taken from patent US8455214B2, “Methods for determining chemotherapeutic agents targeting alpha-glucan pathways and uses thereof” (priority 2009, dated 2013).

System: Mtb ΔRv3032 mutant
Assay type: cell-based

OCC1=C[C@@H](N[C@H]2C[C@H](CO)[C@@H](O[C@H]3O[C@@H](CO)[C@H](O)[C@@H](O)[C@@H]3O)[C@H](O)[C@H]2O)[C@H](O)[C@@H](O)[C@@H]1O [VA, Validamycin A]
killing (reduction of viability, CFU) (over 7 days, cultures inoculated at 5×10^6 CFU/ml): 3 log | effect of over-expression of the putative target TreS (ΔRv3032 mutant with TreS from an integrative single-copy plasmid): marked resistance
